Test results taken from US20050250801A1, “Method of treating cancer with azaspirane compositions” (priority 2003, published 2005).
Counter-ions that a name gives are not always drawn.

Assay: Excretion of radioactivity after single oral administration to male rats, target dose 1 mg free base/kg
Assay type: in vivo, Sprague Dawley rats
Parameters: Excretion of Radioactivity: unit not given beside the values
Source text: [^14C] N,N,-diethyl-8,8-dipropyl-2-azaspiro[4,5]decane-2-propanamine dimaleate salt, (“Compound II”) with a specific activity of 91 uCi/mg and chemical purity >99%, and non-radiolabeled dimaleate salt of N,N,-diethyl-8,8-dipropyl-2-azaspiro[4,5]decane-2-propanamine dimaleate (Compound 1) chemical purity >98%, respectively, were used in this study. The site of the radiocarbon label in Compound II is depicted by an asterisk in Formula II. The non-radiolabeled material was used for reference purposes. The radiolabeled material was stored at ca […] in the dark and the non-radiolabeled material at ca −20° C. in the dark.
Three healthy male Sprague Dawley rats (Crl:CD(SD)BR), age ca 8-9 weeks, body weights at dosing 237-255 g, were supplied by Charles River (UK) Limited. The animals were housed in holding cages suitable for this species for 8 days prior to use. SDS Rat and Mouse Maintenance Diet No. 1, (Special Diets Services, Witham Essex), and mains quality water were available ad libitum throughout. The diet and water supplied to the animals were routinely analyzed for quality and no problems were detected. Holding and study areas had automatic control of light cycle and temperature. The actual range of temperature measured during the study was 17-25° C. with relative humidity measured at 60%.
The dose was prepared for oral administration on the day of dosing. […]
For each rat, an aliquot of the dose solution was administered orally by gavage. […] For each dose, the combined weight of dose and dosing equipment were recorded prior to dosing and the discharged dosing equipment was weighed after dosing. The concentration of radioactive material in each dose solution was also determined.
Immediately following dosing, the rats were placed into all glass metabolism cages suitable for the quantitative collection of excreta and expired air. All samples were collected into individual, uniquely labeled containers.
[…] The collection containers were cooled by solid CO2 during the first 48 hours after dosing.
[…] Collection containers were cooled by solid CO2 during the first 48 hours.
At the time of each feces collection, each cage was washed with water (ca 750 mL) and the washings were retained for radioassay. During the periods 0-24 h and 24-48 hours after dosing, expired air was passed through 2 serial traps containing ethanolamine:ethoxyethaonol (3:7, v/v) in order to effect the removal of CO2. The trap solvent was sampled for radioassay at the end of each collection period.
At 168 hours post dose, each animal was killed by CO2 narcosis and cervical dislocation. Gastrointestinal tracts were removed and retained separately from the carcasses in preparation for radioassay.
All urine and feces samples were stored frozen ([…]) prior to and after analysis. Cage washes were stored at room temperature until analysis was complete and were then discarded. All carcasses and gastro-intestinal tracts were stored frozen at ca-20° C. prior to analysis.
Duplicate aliquots of urine (ca 0.3 mL) and cage washings (ca 1 mL) were dispensed, diluted to 1 mL with distilled water (if considered necessary) and mixed with Quickzint 1 scintillation fluid (10 mL; Zinsser Analytic Maidenhead, UK).
Feces were homogenised in 1 to 2 volumes of water with the sample and homogenate weight recorded. Duplicate aliquots (ca 0.3) were taken from each sample and dispensed onto combustopads contained in combustocones (Can berra Packard Limited, Pangbourne, UK). When dry, these samples were combusted using a Packard Tri-Carb 306 Automatic Sample Oxidiser. The resultant ^14CO2 generated was collected by absorption in Carbo-Sorb® (8 mL; Can berra Packard Limited) to which Permafluor®E^+ scintillation fluid (10 mL; Can berra Packard Limited) was added.
For each rat, the carcass and gastro-intestinal tract with contents were solubilised in Soluene 350 (Canberra Packard). When dissolved, portions of the digest (ca 0.1 mL) were taken for liquid scintillation spectrometry. […]

CCCC1(CCC)CCC2(CCN(CCCN(CC)CC)C2)CC1 [Compound II, [^14C] N,N,-diethyl-8,8-dipropyl-2-azaspiro[4,5]decane-2-propanamine dimaleate salt]
Dose recovered in expired air (0-48 hours collection): Less than 0.2%
Excretion of Radioactivity (Cage Wash 0-24 hours, #1 male): 0.1
Excretion of Radioactivity (Cage Wash 0-24 hours, #2 male): 0.1
Excretion of Radioactivity (Cage Wash 0-24 hours, #3 male): *<0.1
Excretion of Radioactivity (Cage Wash 0-24 hours, Mean): ^+0.1
Excretion of Radioactivity (Cage Wash 0-168 hours, #1 male): 0.7
Excretion of Radioactivity (Cage Wash 0-168 hours, #2 male): 1.0
Excretion of Radioactivity (Cage Wash 0-168 hours, #3 male): 1.3
Excretion of Radioactivity (Cage Wash 0-168 hours, Mean): 1.0
Excretion of Radioactivity (Cage Wash 24-48 hours, #1 male): 0.1
Excretion of Radioactivity (Cage Wash 24-48 hours, #2 male): <0.1
Excretion of Radioactivity (Cage Wash 24-48 hours, #3 male): 0.1
Excretion of Radioactivity (Cage Wash 24-48 hours, Mean): 0.1
Excretion of Radioactivity (Cage Wash 48-72 hours, #1 male): <0.1
Excretion of Radioactivity (Cage Wash 48-72 hours, #2 male): 0.2
Excretion of Radioactivity (Cage Wash 48-72 hours, #3 male): 0.2
Excretion of Radioactivity (Cage Wash 48-72 hours, Mean): 0.1
Excretion of Radioactivity (Cage Wash 72-96 hours, #1 male): 0.1
Excretion of Radioactivity (Cage Wash 72-96 hours, #2 male): 0.2
Excretion of Radioactivity (Cage Wash 72-96 hours, #3 male): 0.3
Excretion of Radioactivity (Cage Wash 72-96 hours, Mean): 0.2
Excretion of Radioactivity (Cage Wash 96-120 hours, #1 male): 0.1
Excretion of Radioactivity (Cage Wash 96-120 hours, #2 male): 0.2
Excretion of Radioactivity (Cage Wash 96-120 hours, #3 male): 0.2
Excretion of Radioactivity (Cage Wash 96-120 hours, Mean): 0.2
Excretion of Radioactivity (Cage Wash 120-144 hours, #1 male): 0.1
Excretion of Radioactivity (Cage Wash 120-144 hours, #2 male): 0.1
Excretion of Radioactivity (Cage Wash 120-144 hours, #3 male): 0.3
Excretion of Radioactivity (Cage Wash 120-144 hours, Mean): 0.2
Excretion of Radioactivity (Cage Wash 144-168 hours, #1 male): 0.2
Excretion of Radioactivity (Cage Wash 144-168 hours, #2 male): 0.2
Excretion of Radioactivity (Cage Wash 144-168 hours, #3 male): 0.2
Excretion of Radioactivity (Cage Wash 144-168 hours, Mean): 0.2
Recovery of Radioactivity (Cage Washings, 168 hour collection period, #3 male): *1.3 % administered dose
Recovery of Radioactivity (Cage Washings, 168 hour collection period, Mean): ^+1.0 % administered dose
Recovery of Radioactivity (Carcass, at 168 hours, #1 male): 11.3 % administered dose
Recovery of Radioactivity (Carcass, at 168 hours, #2 male): 14.1 % administered dose
Recovery of Radioactivity (Carcass, at 168 hours, #3 male): 14.9 % administered dose
Recovery of Radioactivity (Carcass, at 168 hours, Mean): 13.5 % administered dose
Recovery of Radioactivity (Expired air 1, #1 male): *<0.1 % administered dose
Recovery of Radioactivity (Expired air 1, #2 male): *<0.1 % administered dose
Recovery of Radioactivity (Expired air 1, #3 male): *<0.1 % administered dose
Recovery of Radioactivity (Expired air 1, Mean): ^+<0.1 % administered dose
Recovery of Radioactivity (Expired air 2, #1 male): *<0.1 % administered dose
Recovery of Radioactivity (Expired air 2, #2 male): *<0.1 % administered dose
Recovery of Radioactivity (Expired air 2, #3 male): *<0.1 % administered dose
Recovery of Radioactivity (Expired air 2, Mean): ^+<0.1 % administered dose
Excretion of Radioactivity (Feces 0-24 hours, #1 male): 18.2
Excretion of Radioactivity (Feces 0-24 hours, #2 male): 14.7
Excretion of Radioactivity (Feces 0-24 hours, #3 male): 17.7
Excretion of Radioactivity (Feces 0-24 hours, Mean): 16.9
Excretion of Radioactivity (Feces 0-168 hours, #1 male): 64.0
Excretion of Radioactivity (Feces 0-168 hours, #2 male): 65.7
Excretion of Radioactivity (Feces 0-168 hours, #3 male): 66.7
Excretion of Radioactivity (Feces 0-168 hours, Mean): 65.5
Excretion of Radioactivity (Feces 24-48 hours, #1 male): 16.3
Excretion of Radioactivity (Feces 24-48 hours, #2 male): 17.2
Excretion of Radioactivity (Feces 24-48 hours, #3 male): 14.5
Excretion of Radioactivity (Feces 24-48 hours, Mean): 16.0
Excretion of Radioactivity (Feces 48-72 hours, #1 male): 10.0
Excretion of Radioactivity (Feces 48-72 hours, #2 male): 15.2
Excretion of Radioactivity (Feces 48-72 hours, #3 male): 12.7
Excretion of Radioactivity (Feces 48-72 hours, Mean): 12.6
